Patent publication US9198420B2, “Rodenticidal norbormide analogues” (priority 2012, dated 2015)

Experiments:
[1] = system: rat caudal artery; test: Rat caudal artery ring contractile force (vasoconstrictory activity); design: species or system rat (male Wistar)
Method: Male Wistar rats (150-250 g) were obtained from Charles River Italia (Milano, Italy) and killed by decapitation. Ventral caudal artery was isolated, placed in Tyrode solution at room temperature and cleaned of extraneous fatty and connective tissue under a dissection microscope. All vessels were cut into rings 2 mm long, mounted on a custom-built plexiglass support by means of two intraluminal tungsten wires and placed in 20 mL double-jacketed organ baths filled with Tyrode solution of the following composition (mM): NaCl 125, KCl 5, CaCl2 2.7, MgSO4 1, KH2PO4 1.2, NaHCO3 25 and glucose 11, maintained at 37° C., pH 7.35, bubbled with 95% O2 and […]. The endothelium was removed by gently rubbing the lumen of the rings with a very thin rough-surfaced tungsten wire (caudal artery). The mechanical activity of the rings was detected by means of an isometric force transducer (Ugo Basile, Comerio, Italy) coupled to a pen recorder (Ugo Basile, Comerio, Italy). Rings were passively stretched to impose a resting tension (2 g) and were allowed to equilibrate for 60 min. After equilibration, each ring was repeatedly simulated with both KCl (90 mM) and phenylephrine (10 μM) until reproducible responses were obtained. To verify the absence of the endothelium, rings contracted with 1 μM phenylephrine were exposed to […] carbamylcholine. […] Each compound was tested for the vasoconstrictor activity at a concentration of 50 μM, which has been previously reported to be the one evoking the maximal response to norbormide. The contractile responses to the compounds were expressed as percent of the 90 mM KCl response.

[2] = Simulated gastric fluid (SGF) hydrolytic stability assay; type: physicochemical; settings: simulated gastric fluid without pepsin, pH 1.2, 37° C., 1 h, n = 3; for % NRB released, Hydrolytic Stability (simulated gastric fluid): footnote c: compounds not exhibiting vasoconstriction
Method: All in vivo candidates were subjected to a 1 h hydrolytic stability appraisal in the presence of SGF, without pepsin (United States Pharmacopoeia 24) [200 μL total volume, sodium chloride solution (0.03 M) acidified to pH 1.2 with concentrated hydrochloric acid, at a final compound concentration of 200 μM, 2.5% DMSO overall, 37° C., n=3], to investigate any potential chemical instabilities that may occur in the acidic environment of the stomach prior to uptake. Analysis was by RP-LCMS at an injection volume of 5 μL.

[3] = Rat serum assay (release of NRB or NRB analogue); type: in vitro ADME; settings: 80% rat serum, 37° C., 3 h, n = 3
Method: The hydrolytic stability of compounds of the invention in rat blood was evaluated using in vitro rat serum obtained from Sigma-Aldrich and stored at −78° C. Similar assay conditions to those reported by Li Di and co-workers (Int. J. Pharm. 2005, 297, 110-119) were followed [200 μL total volume, 80% rat serum (diluting with phosphate buffer (0.1 M, pH 7.4)), at a final compound concentration of 200 μM, 2.5% DMSO overall, 37° C., 3 h, n=3] using an Eppendorf Thermomixer Compact. Reactions were quenched by transferring 150 μL of the incubation mixture to 450 μL of ice-cold acetonitrile, affording a final compound/NRB or NRB analogue concentration of 50 μM. Samples were centrifuged at 14,500×g for 15 min using an Eppendorf Mini Spin Plus centrifuge, at ambient temperature. 400 μL of the supernatant was removed and transferred to clean tubes. Analysis was by RP-LCMS at an injection volume of 20 μL. Each compound and corresponding NRB or NRB analogue were subjected to external calibration curves at 50 μM, 100 μM and 200 μM to allow conversion of absorbance unit area into nmol, from which the percentage of NRB or NRB analogue released from each compound was calculated.

[4] = Table 5, compounds of formula (III)

SMILES | Vasoconstriction: maximum contractile effect as a % of 90 mM KCl contraction [1, 4] [%] | Vasoconstriction: maximum contractile effect as a % of 90 mM KCl contraction ([1]; n = 3, pre-cleavage, Table 6) [%] | % NRB released, Hydrolytic Stability [2] [%] | % NRB released, Rat Serum [3] [%] | Vasoconstriction: maximum contractile effect as a % of 90 mM KCl contraction ([1]; Table 1, compound at 50 μM) [%] | Vasoconstriction: maximum contractile effect as a % of 90 mM KCl contraction ([1]; Table 4, pre-cleavage, n = 3) [%] | % NRB released, Hydrolytic Stability (simulated gastric fluid) [2]
O=C(CCCCCCCCCCC(=O)OCN1C(=O)C2C3C=C(C(O)(c4ccccc4)c4ccccn4)C(C3=C(c3ccccc3)c3ccccn3)C2C1=O)OCN1C(=O)C2C3C=C(C(O)(c4ccccc4)c4ccccn4)C(C3=C(c3ccccc3)c3ccccn3)C2C1=O (stereo not drawn) [Compound 25, N-Dodecanedioyloxymethyl-5-(α-hydroxy-α-2-pyridylbenzyl)-7-(α-2-pyridylbenzylidene)-5-norbornene-2,3-dicarboximide dimer] | 0 | 0 | 0 | <5 |  |  | 
O=C(OCN1C(=O)C2C3C=C(C(O)(c4ccccc4)c4ccccn4)C(C3=C(c3ccccc3)c3ccccn3)C2C1=O)c1ccc(C(=O)OCN2C(=O)C3C4C=C(C(O)(c5ccccc5)c5ccccn5)C(C4=C(c4ccccc4)c4ccccn4)C3C2=O)cc1 (stereo not drawn) [Compound 26, 5-(α-Hydroxy-α-2-pyridylbenzyl)-7-(α-2-pyridylbenzylidene)-N-terephthaloyloxymethyl-5-norbornene-2,3-dicarboximide dimer] | 0 | 0 | 0 | <5 |  |  | 
O=C(CCC(=O)OCN1C(=O)C2C3C=C(C(O)(c4ccccc4)c4ccccn4)C(C3=C(c3ccccc3)c3ccccn3)C2C1=O)OCCOC(=O)CCC(=O)OCN1C(=O)C2C3C=C(C(O)(c4ccccc4)c4ccccn4)C(C3=C(c3ccccc3)c3ccccn3)C2C1=O (stereo not drawn) [Compound 27, N-[α-(Ethylenebis(hydrogensuccinoyloxy))methyl]-5-(α-hydroxy-α-2-pyridylbenzyl)-7-(α-2-pyridylbenzylidene)-5-norbornene-2,3-dicarboximide dimer] | 0 | 0 | 0 | 20.8 ± 0.7 |  |  | 
CCCCCCCCCCCC(=O)OCCN1C(=O)C2C3C=C(C(O)(c4ccccc4)c4ccccn4)C(C3=C(c3ccccc3)c3ccccn3)C2C1=O (stereo not drawn) [Compound 112, N-2′-Dodecanoyloxyethyl-5-(α-hydroxy-α-2-pyridylbenzyl)-7-(α-2-pyridylbenzylidene)-5-norbornene-2,3-dicarboximide] |  |  |  | 19.3 ± 1.3 | 0 | 0 | 0^c %
O=C(C=Cc1ccccc1)OCCN1C(=O)C2C3C=C(C(O)(c4ccccc4)c4ccccn4)C(C3=C(c3ccccc3)c3ccccn3)C2C1=O (stereo not drawn) [Compound 120, N-2′-Cinnamoyloxyethyl-5-(α-hydroxy-α-2-pyridylbenzyl)-7-(α-2-pyridylbenzylidene)-5-norbornene-2,3-dicarboximide] |  |  |  | 14.1 ± 0.4 | 66 | 66 | 0^c %
CC(CN1C(=O)C2C3C=C(C(O)(c4ccccc4)c4ccccn4)C(C3=C(c3ccccc3)c3ccccn3)C2C1=O)OC(=O)C=Cc1ccccc1 (stereo not drawn) [Compound 135, N-2′-Cinnamoyloxypropyl-5-(α-hydroxy-α-2-pyridylbenzyl)-7-(α-2-pyridylbenzylidene)-5-norbornene-2,3-dicarboximide] |  |  |  | 33.8 ± 6.1 | 0 | 0 | 0^c %
O=C(C=Cc1ccccc1)OCCCCN1C(=O)C2C3C=C(C(O)(c4ccccc4)c4ccccn4)C(C3=C(c3ccccc3)c3ccccn3)C2C1=O (stereo not drawn) [Compound 137, N-4′-Cinnamoyloxybutyl-5-(α-hydroxy-α-2-pyridylbenzyl)-7-(α-2-pyridylbenzylidene)-5-norbornene-2,3-dicarboximide] |  |  |  | 81.0 ± 0.8 | 0 | 0 | 0^c %
O=C(CCC(=O)OCCN1C(=O)C2C3C=C(C(O)(c4ccccc4)c4ccccn4)C(C3=C(c3ccccc3)c3ccccn3)C2C1=O)OCCN1C(=O)C2C3C=C(C(O)(c4ccccc4)c4ccccn4)C(C3=C(c3ccccc3)c3ccccn3)C2C1=O (stereo not drawn) [Compound 138, 5-(α-Hydroxy-α-2-pyridylbenzyl)-7-(α-2-pyridylbenzylidene)-N-2′-succinoyloxyethyl-5-norbornene-2,3-dicarboximide dimer] | 0 | 0 | 0 | 7.7 ± 0.2 |  |  | 
O=C(CCCCC(=O)OCCN1C(=O)C2C3C=C(C(O)(c4ccccc4)c4ccccn4)C(C3=C(c3ccccc3)c3ccccn3)C2C1=O)OCCN1C(=O)C2C3C=C(C(O)(c4ccccc4)c4ccccn4)C(C3=C(c3ccccc3)c3ccccn3)C2C1=O (stereo not drawn) [Compound 139, N-2′-Adipoyloxyethyl-5-(α-hydroxy-α-2-pyridylbenzyl)-7-(α-2-pyridylbenzylidene)-5-norbornene-2,3-dicarboximide dimer] | 20 | 20 | 0 | 11.7 ± 1.6 |  |  | 
O=C(CCCCCCC(=O)OCCN1C(=O)C2C3C=C(C(O)(c4ccccc4)c4ccccn4)C(C3=C(c3ccccc3)c3ccccn3)C2C1=O)OCCN1C(=O)C2C3C=C(C(O)(c4ccccc4)c4ccccn4)C(C3=C(c3ccccc3)c3ccccn3)C2C1=O (stereo not drawn) [Compound 140, 5-(α-Hydroxy-α-2-pyridylbenzyl)-7-(α-2-pyridylbenzylidene)-N-2′-suberoyloxyethyl-5-norbornene-2,3-dicarboximide dimer] | 0 | 0 | 0 | 9.9 ± 1.3 |  |  | 
O=C(CCCCCCCCCCC(=O)OCCN1C(=O)C2C3C=C(C(O)(c4ccccc4)c4ccccn4)C(C3=C(c3ccccc3)c3ccccn3)C2C1=O)OCCN1C(=O)C2C3C=C(C(O)(c4ccccc4)c4ccccn4)C(C3=C(c3ccccc3)c3ccccn3)C2C1=O (stereo not drawn) [Compound 142, N-2′-Dodecanedioyloxyethyl-5-(α-hydroxy-α-2-pyridylbenzyl)-7-(α-2-pyridylbenzylidene)-5-norbornene-2,3-dicarboximide dimer] | 0 | 0 | 0 | <5 |  |  | 
